Measurements published in the NIST ThermoML archive (doi:10.1021/acs.jced.6b00536).

Assay: xn = mol fraction of the nth substance listed
Details: Gas, Frequency=0.05 MHz, Single path-length method, x2 = 0.058

FC(F)(F)C(F)(F)C(F)(F)F [octafluoropropane] + N#N
Details | speed of sound [m/s]
252.62 K, 0.0858 kPa | 109
252.62 K, 0.1039 kPa | 108.4
252.62 K, 0.1203 kPa | 107.8
252.62 K, 0.137 kPa | 107.18
252.62 K, 0.1525 kPa | 106.62
252.62 K, 0.1669 kPa | 106.06
252.62 K, 0.1773 kPa | 105.75
252.62 K, 0.1861 kPa | 105.38
252.62 K, 0.1862 kPa | 105.38
257.71 K, 0.08757 kPa | 110.16
257.71 K, 0.1056 kPa | 109.59
257.71 K, 0.1227 kPa | 109
257.71 K, 0.1398 kPa | 108.4
257.71 K, 0.1558 kPa | 107.86
257.71 K, 0.1702 kPa | 107.33
257.71 K, 0.181 kPa | 107.04
257.71 K, 0.1898 kPa | 106.68
257.71 K, 0.19 kPa | 106.68
257.71 K, 0.2222 kPa | 105.46
257.71 K, 0.2396 kPa | 104.86
257.71 K, 0.2541 kPa | 104.28
257.71 K, 0.2547 kPa | 104.37
262.83 K, 0.08917 kPa | 111.32
262.83 K, 0.1075 kPa | 110.77
262.83 K, 0.125 kPa | 110.2
262.83 K, 0.1429 kPa | 109.63
262.83 K, 0.1589 kPa | 109.12
262.83 K, 0.1737 kPa | 108.6
262.83 K, 0.1844 kPa | 108.31
262.83 K, 0.1937 kPa | 107.97
262.83 K, 0.1942 kPa | 107.97
262.83 K, 0.2273 kPa | 106.8
262.83 K, 0.2449 kPa | 106.21
262.83 K, 0.2605 kPa | 105.64
262.83 K, 0.2771 kPa | 105.01
262.83 K, 0.2894 kPa | 104.6
267.94 K, 0.09058 kPa | 112.46
267.94 K, 0.1095 kPa | 111.93
267.94 K, 0.1273 kPa | 111.39
267.94 K, 0.1462 kPa | 110.83
267.94 K, 0.1619 kPa | 110.33
267.94 K, 0.1773 kPa | 109.83
267.94 K, 0.1883 kPa | 109.56
267.94 K, 0.1978 kPa | 109.24
267.94 K, 0.1983 kPa | 109.23
267.94 K, 0.2324 kPa | 108.11
267.94 K, 0.2503 kPa | 107.55
267.94 K, 0.2663 kPa | 106.99
267.94 K, 0.2836 kPa | 106.41
267.94 K, 0.2966 kPa | 105.98
273.07 K, 0.09281 kPa | 113.6
273.07 K, 0.1111 kPa | 113.09
273.07 K, 0.1299 kPa | 112.57
273.07 K, 0.149 kPa | 112.03
273.07 K, 0.1655 kPa | 111.55
273.07 K, 0.1819 kPa | 111.06
273.07 K, 0.1923 kPa | 110.81
273.07 K, 0.2019 kPa | 110.5
273.07 K, 0.2023 kPa | 110.49
273.07 K, 0.2381 kPa | 109.41
273.07 K, 0.2555 kPa | 108.88
273.07 K, 0.2726 kPa | 108.31
273.07 K, 0.2918 kPa | 107.72
273.07 K, 0.3039 kPa | 107.38
278.15 K, 0.0943 kPa | 114.71
278.15 K, 0.1132 kPa | 114.22
278.15 K, 0.1321 kPa | 113.71
278.15 K, 0.1515 kPa | 113.2
278.15 K, 0.1686 kPa | 112.73
278.15 K, 0.1856 kPa | 112.27
278.15 K, 0.1961 kPa | 112.03
278.15 K, 0.2057 kPa | 111.72
278.15 K, 0.2062 kPa | 111.72
278.15 K, 0.2428 kPa | 110.66
278.15 K, 0.2609 kPa | 110.16
278.15 K, 0.2783 kPa | 109.63
278.15 K, 0.2983 kPa | 109.03
278.15 K, 0.3119 kPa | 108.65
283.2 K, 0.09562 kPa | 115.81
283.2 K, 0.1152 kPa | 115.33
283.2 K, 0.1344 kPa | 114.84
283.2 K, 0.1548 kPa | 114.34
283.2 K, 0.1718 kPa | 113.88
283.2 K, 0.1892 kPa | 113.45
283.2 K, 0.1997 kPa | 113.19
283.2 K, 0.2093 kPa | 112.93
283.2 K, 0.2102 kPa | 112.92
283.2 K, 0.2476 kPa | 111.9
283.2 K, 0.2662 kPa | 111.41
283.2 K, 0.2839 kPa | 110.89
283.2 K, 0.3047 kPa | 110.33
283.2 K, 0.3184 kPa | 109.97
288.26 K, 0.09724 kPa | 116.9
288.26 K, 0.117 kPa | 116.43
288.26 K, 0.1367 kPa | 115.96
288.26 K, 0.1569 kPa | 115.48
288.26 K, 0.175 kPa | 115.05
288.26 K, 0.193 kPa | 114.61
288.26 K, 0.2034 kPa | 114.38
288.26 K, 0.2133 kPa | 114.1
288.26 K, 0.2142 kPa | 114.08
288.26 K, 0.2525 kPa | 113.14
288.26 K, 0.2716 kPa | 112.65
288.26 K, 0.2896 kPa | 112.16
288.26 K, 0.3111 kPa | 111.61
288.26 K, 0.3249 kPa | 111.24
